Assay results taken from patent US6849405B2, “Translation enhancer element of the human amyloid precursor protein gene” (The Brigham and Women's Hospital, Inc., priority 1997, dated 2005).

Experiments:
Type in all cases: cell-based, human
[1] = tested on: alpha-1 antichymotrypsin (ACT) mRNA; assay: Northern blot of ACT-mRNA, primary astrocytes
Experimental: (§1) Total RNA (10 μg) was extracted from primary astrocytes and astrocytoma cells with a RNA-STAT kit (Tel-Test). RNA samples were denatured in 50% formamide/2.2 M formaldehyde/20 mM MOPS/5 mM sodium acetate/0.5 mM EDTA, pH 7.4, at 60° C. for 10 minutes, electrophoresed on 1.0% agarose-formaldehyde gels, blotted onto Hybond-N filters and immobilized by UV crosslinking and heating filters to 80° C. Filters were prehybridized for 3 hours and hybridized overnight in a solution consisting of 50% formamide, […] denatured salmon sperm DNA, 5×SSC, 0.1% sodium dodecyl sulfate and 5×Denhardt's solution. Following hybridization, filters were washed twice for a total of 1 hour in 2×SSC/0.2% sodium dodecyl sulfate at room temperature and twice each for a total of 1 hour in 0.5×SSC/0.1% sodium dodecyl sulfate at 55° C. Equal loading was verified by ethidium bromide staining, non-specific hybridization of the ACT probe to the 28S rRNA, and by standardized hybridization to the GAPDH cDNA probe as an internal standard. The APP cDNA probe corresponded to the unique internal 1 kb fragment gel purified from the 3 kb APP cDNA (Kang et al. Nature 325: 733 (1987)), the ACT cRNA probe to a PstI/SacI fragment (536-943) in the human ACT cDNA (Chandra, et al., Biochemistry 22: 5055 (1983)) and the GAPDH probe to the human GAPDH gene (Tokunaga, et al., Cancer Res. 47: 5616 (1987)).

[2] = tested on: APP-mRNA; assay: Northern blot of APP-mRNA, astrocytoma cells; settings: average of four Northern blot experiments
Experimental: as §1

[3] = tested on: pSV2CAT parental vector; assay: CAT reporter activity in astrocytoma cells transfected with parental vector pSV2CAT
Experimental: Astrocytoma and neuroblastoma cells were transfected with pSV2CAT or pSV2(APP)CAT by lipofection. Briefly, lipofectamine reagent (Boehringer) was added to DMEM (without serum) and allowed to sit 30 minutes at room temperature. Plasmids (10 μg) in an equal volume of DMEM were then added, and, after sitting for 45 minutes at room temperature, the lipid/DNA solution was added to 60% confluent cells on 100×20 mm cell culture plates. After 4 hours, this solution was removed, and the cells were washed twice in DMEM (without serum). Fresh DMEM medium (containing 10% fetal calf serum) was added. At this time, treatments were administered which included: (1) 0.5 ng/ml IL-1α; (2) 0.5 ng/ml IL-1β; (3) 5 μM Fe2TF (holo-transferrin); and (4) unstimulated controls. […]
After harvesting, cells were resuspended in 100 μl 0.25 M Tris, pH 7.8, and subjected to three cycles of freezing (liquid nitrogen) and […] (37° C.) to lyse cells. […] Protein concentration was determined by a Biorad assay, and exactly 20 μg of lysate was added to a CAT reaction mix containing 50 μl 1M Tris, pH 7.8, 20 μl acetylcoenzyme-A (3.5 mg/ml) and […] ^14C-labeled chloramphenicol (25 mCi/ml). […] For quantitative analysis, the areas on the TLC plates which aligned with dots on the film were excised and the radioactivity was counted in 5 ml of scintillation cocktail (Econofluor) using a scintillation counter (Hewlett Packard). […]

Substance	increase in ACT-mRNA levels (densitometry) [1]	increase in steady-state levels of APP-mRNAs standardized to GAPDH-mRNA [2] [%]	effect on CAT activity, parental vector [3]
interleukin-1α [IL-1α]	greater than 10 fold	–	–
interleukin-1β [IL-1β]	–	30	no effect
